Data set [1] concerns the target T1, neuronal constitutive NO synthase (Rattus norvegicus, UniProt P29476).
T1 construct: The reaction is initiated by adding 50 μl of homogenate; from tissue; host or cells: cerebellum of Sprague-Dawley rats (homogenate centrifuged at 21000 g)
The data set can be described thus: Effects on neuronal constitutive NO synthase of a rat's cerebellum ([3H]L-arginine to [3H]L-citrulline conversion). The class given is biochemical. The settings on record: rat cerebellum homogenate; conversion of [3H]L-arginine to [3H]L-citrulline. How it is done: Study of the Effects on Neuronal Constitutive NO Synthase of a Rat's Cerebellum
The inhibitory activity of the products of the invention is determined by measuring their effects on the conversion by NO synthase of [^3H]L-arginine to [^3H]L-citrulline according to the modified method of Bredt and Snyder (Proc. Natl. Acad. Sci. USA. (1990) 87: 682-685). The cerebellums of Sprague-Dawley rats (300 g—Charles River) are rapidly removed, dissected at 4° C. and homogenized in a volume of extraction buffer (HEPES 50 mM, EDTA 1 mM, pH 7.4, pepstatin A […], leupeptin […]). The homogenates are then centrifuged at 21000 g for 15 min at 4° C. Dosage is carried out in glass test tubes in which 100 μl of incubation buffer containing 100 mM of HEPES (pH 7.4), 2 mM of EDTA, 2.5 mM of CaCl2, 2 mM of dithiotreitol, 2 mM of reduced NADPH and 10 μg/ml of calmodulin are distributed. 25 μl of a solution containing 100 nM of [^3H]L-arginine (Specific activity: 56.4 Ci/mmole, Amersham) and 40 μM of non-radioactive L-arginine is added. The reaction is initiated by adding 50 μl of homogenate, the final volume being 200 μl (the missing 25 μl are either water or the tested product). […] After passing the samples through a 1 ml column of DOWEX resin, the radioactivity is quantified by a liquid scintillation spectrometer.

The target of the next data set is T2, MAO-B (Rattus norvegicus, UniProt P19643).
T2 construct: 100 μl of the mitochondrial preparation (2 mg protein/ml) is incubated for 1 hour at 37° C; from tissue; host or cells: rat cortex, mitochondrial fraction
T2 sequence (P19643 1-520): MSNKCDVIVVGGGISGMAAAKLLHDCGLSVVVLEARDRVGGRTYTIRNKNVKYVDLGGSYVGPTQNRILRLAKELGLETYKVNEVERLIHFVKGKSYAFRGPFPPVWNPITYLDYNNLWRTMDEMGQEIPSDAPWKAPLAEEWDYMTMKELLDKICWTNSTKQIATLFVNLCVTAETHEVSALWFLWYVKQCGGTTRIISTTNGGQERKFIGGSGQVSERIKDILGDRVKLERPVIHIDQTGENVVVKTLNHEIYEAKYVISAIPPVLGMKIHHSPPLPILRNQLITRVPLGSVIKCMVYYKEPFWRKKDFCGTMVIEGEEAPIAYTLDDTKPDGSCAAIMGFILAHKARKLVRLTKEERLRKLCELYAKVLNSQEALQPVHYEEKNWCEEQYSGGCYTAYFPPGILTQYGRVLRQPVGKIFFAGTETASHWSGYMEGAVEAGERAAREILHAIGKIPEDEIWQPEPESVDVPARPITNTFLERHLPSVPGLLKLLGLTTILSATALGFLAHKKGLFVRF
The data set can be described thus: Effects on the bond of a specific ligand of MAO-B, [3H]Ro 19-6327 (rat cortex mitochondrial preparation). The class given is binding. The settings on record: [3H]Ro 19-6327 33 nM, 1 hour at 37° C. On the procedure: Study of the Effects on the Bond of a Specific Ligand of MAO-B, [^3H]Ro 19-6327
The inhibitory activity of the products of the invention is determined by measuring their effects on the bond of a specific ligand of MAO-B, [^3H]Ro 19-6327.
A) Mitochondrial Preparation of the Cortex of Rats
The mitochondrial preparation of the cortex of rats is carried out according to the method described in Cesura A M, Galva M D, Imhof R and Da Prada M, J. Neurochem. 48 (1987), 170-176. The rats are decapitated and their cortex is removed, homogenized in 9 volumes of a 0.32 M sucrose buffer, buffered to pH 7.4 with 5 mM of HEPES, then centrifuged at 800 g for 20 minutes. The supernatants are recovered and the pellets are washed twice with the 0.32 M sucrose buffer as previously. The collected supernatants are centrifuged at 10000 g for 20 minutes. […] The proteinic content of the preparation is determined by the Lowry method.
100 μl of the mitochondrial preparation (2 mg protein/ml) is incubated for 1 hour at 37° C. in an Eppendorf tube, in the presence of 100 μl of [^3H]Ro 19-6327 (33 nM, final concentration) and 100 μl of Tris buffer containing or not containing the inhibitors. […] The radioactivity is determined by counting the samples using liquid scintillation.

What is called melting point is the temperature, or range, at which the solid turns liquid. Broadly, the IC50 is the concentration that inhibits the measured activity by half. Consider `C#CCN(C)Cc1ccc(N=C(N)c2cccs2)cc1` [Example 1, N′-(4-{[methyl(2-propynyl)amino]methyl}phenyl)-2-thiophenecarboximidamide], for which the melting point is 109 to 110 °C. For the same compound, the IC50 in data set [1] is below 3.5 µM. For the same compound, on MAO-B, the IC50 was below 25 µM.
